Results reported in article PMC3951999 (Cancer cell, 2011).
Like-named read-outs stand apart in the source and are kept apart here.

How the values were obtained:
[1] = tested on: BRAF binding to CRAF; test: BRAF binding to CRAF with PLX4720; assay type: cell-based; settings: Fig S3C; cells not given
[2] = tested on: SW620 (KRAS^G12V), Panc1 (KRAS^G12D) and H460 (KRAS^Q61H) cells; test: Western blot for MEK and ERK activation in KRAS mutant cells; assay type: cell-based, human; settings: imatinib 10μM, nilotinib 1μM, dasatinib 5μM
[3] = tested on: BV173 cells; test: Western blots of CRAF immunoprecipitates and lysates, BV173 cells; assay type: cell-based, human
[4] = tested on: K562 cells expressing HRAS^G12V; assay type: cell-based, human; settings: for MEK and ERK phosphorylation: pathway already saturated
[5] = tested on: CML; settings: first-line treatment of CML; ref Quintás-Cardama et al., 2009; cited from earlier work
[6] = tested on: K562 cells; test: Apoptosis; assay type: cell-based, human; settings: PD184352 1μM, 4 days
[7] = tested on: K562R cells; test: Apoptosis; assay type: cell-based, human; settings: PD184352 1μM, 4 days
[8] = tested on: BCR-ABL^T315I Ba/F3 allografts; test: Tumor allograft growth, BCR-ABL^T315I Ba/F3 cells in nude mice; assay type: in vivo; settings: BCR-ABL^T315I tumors; 25 mg/kg, oral gavage daily
[9] = tested on: BCR-ABL Ba/F3 cells; test: Cell proliferation, BCR-ABL Ba/F3 cells; settings: PD184352 2μM, imatinib 3μM, nilotinib 1μM, 4 days
[10] = tested on: BV173 cells; test: Cell proliferation and apoptosis; settings: PD184352 0.2μM, nilotinib 0.1μM, 6 days
[11] = tested on: BV173R cells; test: Cell proliferation and apoptosis; settings: PD184352 0.2μM, nilotinib 0.1μM, 6 days
[12] = tested on: CD34+ hematopoietic cells from healthy individuals; test: Cell proliferation; settings: nilotinib 1μM, PD184352 0.3μM, 96 hr
[13] = tested on: BCR-ABL Ba/F3 cells; test: Apoptosis; settings: 4 days
[14] = tested on: BCR-ABL^G250E/T315I, BCR-ABL^E255K/T315I and BCR-ABL^E255V/T315I Ba/F3 cells; test: Cell proliferation, Ba/F3 cells expressing compound BCR-ABL mutants; settings: Ba/F3 cells with compound BCR-ABL mutants; PD184352 2μM, nilotinib 1μM, 4 days
[15] = tested on: BCR-ABL^T315I Ba/F3 cells; test: Apoptosis; settings: 4 days
[16] = tested on: BCR-ABL^T315I expressing mononuclear cells from imatinib-resistant CML patients; test: Cell proliferation; settings: primary BCR-ABL^T315I cells; nilotinib 1μM, PD184352 0.3μM, 96 hr
[17] = tested on: RAS; test: RAS-GTP capture assay, BCR-ABL Ba/F3 cells; assay type: cell-based, murine; settings: nilotinib 1μM, 60 min
[18] = tested on: K562 cells; test: Western blots of CRAF immunoprecipitates and lysates, K562 cells; assay type: cell-based, human
[19] = tested on: Ba/F3 cells expressing BCR-ABL^G250E/T315I, BCR-ABL^E255K/T315I and BCR-ABL^E255V/T315I; test: Western blots, Ba/F3 cells expressing compound BCR-ABL mutants; assay type: cell-based, murine; settings: Ba/F3 cells with compound BCR-ABL mutants
[20] = tested on: RAS; test: RAS activity in K562 cells; assay type: cell-based, human
[21] = tested on: K562R cells; test: Western blots, K562R cells; assay type: cell-based, human
[22] = tested on: RAS; test: RAS activity in K562R cells; assay type: cell-based, human
[23] = tested on: BCR-ABL Ba/F3 allografts; test: Tumor allograft growth, BCR-ABL Ba/F3 cells in nude mice; assay type: in vivo; settings: BCR-ABL tumors; 25 mg/kg, oral gavage daily
[24] = tested on: D04 cells (NRAS^Q61L); settings: western blot
[25] = tested on: BV173R cells (BCR-ABL^T315I)
[26] = tested on: mononuclear cells harbouring native BCR-ABL from newly diagnosed CML patients; settings: primary BCR-ABL cells; nilotinib 1μM, PD184352 0.3μM, 96 hr
[27] = patient plasma; ref Weisberg et al., 2007; Demetri et al., 2002; cited from earlier work
[28] = biological target: T1, CRAF (Homo sapiens, UniProt P04049); settings: D04 cells; imatinib 10μM, nilotinib 1μM, dasatinib 5μM, 3 hr
[29] = tested on: BCR-ABL^T315I Ba/F3 cells; test: Cell proliferation, BCR-ABL^T315I Ba/F3 cells
[30] = biological target: T2, CRAF (Mus musculus, UniProt Q99N57); test: Endogenous CRAF kinase activity in BCR-ABL Ba/F3 cells
[31] = biological target: T1, CRAF; test: RAF kinase assay, myc-tagged CRAF captured from COS cells; settings: imatinib 10μM, nilotinib 1μM, dasatinib 5μM
[32] = biological target: T2, CRAF; settings: BCR-ABL^T315I Ba/F3 cells
[33] = biological target: CRAF^T421N (Homo sapiens, UniProt P04049, T421N); test: RAF kinase assay, myc-tagged CRAF^T421N captured from COS cells; settings: gatekeeper mutant; imatinib 10μM, nilotinib 1μM, dasatinib 5μM
[34] = tested on: BCR-ABL Ba/F3 cells; test: Western blots of CRAF immunoprecipitates and lysates, BCR-ABL Ba/F3 cells
[35] = tested on: BCR-ABL^T315I Ba/F3 cells; test: Western blots of CRAF immunoprecipitates and lysates, BCR-ABL^T315I Ba/F3 cells
[36] = imatinib 10μM, nilotinib 1μM, dasatinib 5μM

T2 sequence (Q99N57 whole entry): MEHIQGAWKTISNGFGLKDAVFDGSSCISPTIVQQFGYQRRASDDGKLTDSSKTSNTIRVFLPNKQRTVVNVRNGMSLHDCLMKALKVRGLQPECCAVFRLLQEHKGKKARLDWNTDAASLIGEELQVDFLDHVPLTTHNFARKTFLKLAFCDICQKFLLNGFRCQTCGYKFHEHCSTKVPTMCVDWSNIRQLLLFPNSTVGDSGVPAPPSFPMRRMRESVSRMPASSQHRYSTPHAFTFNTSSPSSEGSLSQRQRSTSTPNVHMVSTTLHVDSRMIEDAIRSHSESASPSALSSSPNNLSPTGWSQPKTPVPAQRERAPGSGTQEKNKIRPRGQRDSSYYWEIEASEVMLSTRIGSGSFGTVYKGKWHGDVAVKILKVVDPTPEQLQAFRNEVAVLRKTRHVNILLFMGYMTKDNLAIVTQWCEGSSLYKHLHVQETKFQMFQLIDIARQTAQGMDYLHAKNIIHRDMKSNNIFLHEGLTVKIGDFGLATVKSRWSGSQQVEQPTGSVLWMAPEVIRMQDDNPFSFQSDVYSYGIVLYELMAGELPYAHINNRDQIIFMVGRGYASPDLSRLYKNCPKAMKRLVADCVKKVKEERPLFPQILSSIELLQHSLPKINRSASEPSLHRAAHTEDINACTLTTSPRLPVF

## CCCS(=O)(=O)Nc1ccc(F)c(C(=O)c2c[nH]c3ncc(Cl)cc23)c1F [PLX4720]
[1]
  BRAF binding to CRAF: did not induce strong binding of BRAF to CRAF

## Cc1ccc(NC(=O)c2ccc(CN3CCN(C)CC3)cc2)cc1Nc1nccc(-c2cccnc2)n1 [imatinib]
[2]
  MEK and ERK activation: activated MEK and ERK
[3]
  BCR-ABL and CRKL phosphorylation: inhibited BCR-ABL and CRKL phosphorylation
  MEK and ERK activity: inhibited MEK and ERK
[4]
  MEK and ERK phosphorylation: did not increase MEK and ERK phosphorylation
[5]
  patients who do not achieve complete responses: 20-30%

## O=C(NOCC1CC1)c1ccc(F)c(F)c1Nc1ccc(I)cc1Cl [PD184352]
[6]
  apoptosis / cell death: did not kill these cells
[7]
  growth / cell death: did not affect the growth
[8]
  tumor growth: insensitive
[9]
  cell growth: did not inhibit the growth
[10]
  cell proliferation and apoptosis: did not inhibit cell proliferation or induce apoptosis
[11]
  cell proliferation and apoptosis: did not inhibit cell proliferation or induce apoptosis
[12]
  cell proliferation: resistant
[13]
  apoptosis: did not induce apoptosis
[14]
  cell proliferation: did not affect proliferation
[15]
  apoptosis: did not induce apoptosis
[16]
  cell growth: did not affect the growth

## Cc1cn(-c2cc(NC(=O)c3ccc(C)c(Nc4nccc(-c5cccnc5)n4)c3)cc(C(F)(F)F)c2)cn1 [nilotinib]
[2]
  MEK and ERK activation: activated MEK and ERK
[3]
  BCR-ABL and CRKL phosphorylation: inhibited BCR-ABL and CRKL phosphorylation
  BRAF binding to CRAF: did not induce BRAF binding to CRAF
  MEK and ERK activity: inhibited MEK and ERK
[17]
  RAS activity (RAS-GTP): blocked RAS activity
[18]
  BCR-ABL and CRKL phosphorylation: inhibited BCR-ABL and CRKL phosphorylation
  CRAF, MEK and ERK phosphorylation: inhibited CRAF, MEK and ERK phosphorylation
[18]; [36]
  BRAF binding to CRAF: did not induce BRAF binding to CRAF
[4]; [36]
  BRAF binding to CRAF: induced BRAF binding to CRAF
[4]
  MEK and ERK phosphorylation: did not increase MEK and ERK phosphorylation
[19]
  BCR-ABL and CRKL phosphorylation: did not inhibit BCR-ABL or CRKL phosphorylation
  BRAF binding to CRAF, MEK and ERK activation: induced BRAF binding to CRAF as well as MEK and ERK activation
[20]
  RAS activity: suppressed RAS activity
[21]
  BCR-ABL and CRKL phosphorylation: blocked BCR-ABL and CRKL phosphorylation
  CRAF, MEK and ERK phosphorylation: did not block CRAF, MEK or ERK phosphorylation
[22]
  RAS activity: did not inhibit RAS
[6]
  apoptosis / cell death: induced apoptosis
[7]
  growth / cell death: did not affect the growth
[23]
  tumor growth: strongly suppressed
[8]
  tumor growth: insensitive
[24]
  lowest concentration stimulating robust MEK and ERK phosphorylation: 100 nM
[25]
  BRAF binding to CRAF: induced BRAF binding to CRAF
  MEK and ERK activity: activated MEK and ERK
[26]
  cell proliferation: inhibited the proliferation
[27]
  peak plasma/serum concentration: ~4 µM
[9]
  cell growth: sensitive
[28]
  endogenous CRAF kinase activity: activated
[29]
  cell growth: resistant
[30]
  CRAF activity: blocked CRAF activity
[10]
  cell proliferation and apoptosis: inhibited cell proliferation and induced apoptosis
[31]
  CRAF kinase activity in vitro: inhibited
[32]
  CRAF activity: activated CRAF
[12]
  cell proliferation: resistant
[33]
  CRAF^T421N kinase activity in vitro: resistant
[13]
  apoptosis: induced apoptosis
[14]
  cell proliferation: did not affect proliferation
[34]
  BRAF binding to CRAF: did not affect BRAF binding to CRAF
[34]; BCR-ABL Ba/F3 cells
  BCR-ABL (Y245) and CRKL (Y207) phosphorylation: blocked
[16]
  cell growth: did not affect the growth
[35]
  BRAF binding to CRAF: enhanced BRAF binding to CRAF
  CRAF (S338) phosphorylation, MEK and ERK activity/phosphorylation: induced CRAF phosphorylation on S338 (Fig 3C) and activated CRAF (Fig 3D), MEK and ERK
[35]; BCR-ABL^T315I Ba/F3 cells
  BCR-ABL and CRKL phosphorylation: did not inhibit BCR-ABL or CRKL phosphorylation
